Experiments:
[1] = Ratio of drug uptake in pons to cerebellum in anesthetized cynomolgus monkey after 18.5 mins postinjection; assay type: ADME, organism-based, Macaca fascicularis; conditions: in vivo
[2] = Ratio of drug uptake in pons to cerebellum in anesthetized cynomolgus monkey after 225 mins postinjection; assay type: ADME, organism-based, Macaca fascicularis; conditions: in vivo, 3.75 h
[3] = Ratio of drug uptake in pons to cerebellum in anesthetized cynomolgus monkey after 185 mins postinjection; assay type: ADME, organism-based, Macaca fascicularis; conditions: in vivo
[4] = Ratio of drug uptake in medulla to cerebellum in anesthetized cynomolgus monkey after 135 mins postinjection; assay type: ADME, organism-based, Macaca fascicularis; conditions: in vivo, 2.25 h
[5] = Drug uptake in anesthetized cynomolgus monkey brain occipital lobe after 3.5 mins postinjection; assay type: ADME, organism-based, Macaca fascicularis; conditions: in vivo
[6] = Drug uptake in anesthetized cynomolgus monkey brain occipital lobe after 85 mins postinjection; assay type: ADME, organism-based, Macaca fascicularis; conditions: in vivo
[7] = Drug uptake in anesthetized cynomolgus monkey brain occipital lobe after 155 mins postinjection; assay type: ADME, organism-based, Macaca fascicularis; conditions: in vivo
[8] = Drug uptake in anesthetized cynomolgus monkey brain frontal lobe after 1.5 mins postinjection; assay type: ADME, organism-based, Macaca fascicularis; conditions: in vivo, 0.025 h
[9] = Drug uptake in anesthetized cynomolgus monkey brain frontal lobe after 4.5 mins postinjection; assay type: ADME, organism-based, Macaca fascicularis; conditions: in vivo, 0.075 h
[10] = Drug uptake in anesthetized cynomolgus monkey brain frontal lobe after 6.5 mins postinjection; assay type: ADME, organism-based, Macaca fascicularis; conditions: in vivo
[11] = Drug uptake in anesthetized cynomolgus monkey brain frontal lobe after 75 mins postinjection; assay type: ADME, organism-based, Macaca fascicularis; conditions: in vivo, 1.25 h
[12] = Drug uptake in anesthetized cynomolgus monkey brain frontal lobe after 85 mins postinjection; assay type: ADME, organism-based, Macaca fascicularis; conditions: in vivo
[13] = Drug uptake in anesthetized cynomolgus monkey brain frontal lobe after 225 mins postinjection; assay type: ADME, organism-based, Macaca fascicularis; conditions: in vivo, 3.75 h
[14] = Drug uptake in anesthetized cynomolgus monkey brain frontal lobe after 235 mins postinjection; assay type: ADME, organism-based, Macaca fascicularis; conditions: in vivo
[15] = Ratio of drug uptake in midbrain to cerebellum in anesthetized cynomolgus monkey after 235 mins postinjection; assay type: ADME, organism-based, Macaca fascicularis; conditions: in vivo
[16] = Ratio of drug uptake in midbrain to cerebellum in anesthetized cynomolgus monkey after 185 mins postinjection; assay type: ADME, organism-based, Macaca fascicularis; conditions: in vivo
[17] = Ratio of drug uptake in pons to cerebellum in anesthetized cynomolgus monkey after 0.5 mins postinjection; assay type: ADME, organism-based, Macaca fascicularis; conditions: in vivo
[18] = Ratio of drug uptake in pons to cerebellum in anesthetized cynomolgus monkey after 6.5 mins postinjection; assay type: ADME, organism-based, Macaca fascicularis; conditions: in vivo
[19] = Ratio of drug uptake in occipital lobe to cerebellum in anesthetized cynomolgus monkey after 105 mins postinjection; assay type: ADME, organism-based, Macaca fascicularis; conditions: in vivo, 1.75 h
[20] = Ratio of drug uptake in occipital lobe to cerebellum in anesthetized cynomolgus monkey after 115 mins postinjection; assay type: ADME, organism-based, Macaca fascicularis; conditions: in vivo
[21] = Ratio of drug uptake in occipital lobe to cerebellum in anesthetized cynomolgus monkey after 125 mins postinjection; assay type: ADME, organism-based, Macaca fascicularis; conditions: in vivo
[22] = Ratio of drug uptake in occipital lobe to cerebellum in anesthetized cynomolgus monkey after 185 mins postinjection; assay type: ADME, organism-based, Macaca fascicularis; conditions: in vivo
[23] = Ratio of drug uptake in frontal lobe to cerebellum in anesthetized cynomolgus monkey after 135 mins postinjection; assay type: ADME, organism-based, Macaca fascicularis; conditions: in vivo, 2.25 h
[24] = test system: Midbrain; experiment: Drug uptake in anesthetized cynomolgus monkey brain midbrain after 145 mins postinjection; assay type: ADME, organism-based, Macaca fascicularis; conditions: in vivo
[25] = test system: Midbrain; experiment: Drug uptake in anesthetized cynomolgus monkey brain midbrain after 175 mins postinjection; assay type: ADME, organism-based, Macaca fascicularis; conditions: in vivo
[26] = test system: Midbrain; experiment: Drug uptake in anesthetized cynomolgus monkey brain midbrain after 235 mins postinjection; assay type: ADME, organism-based, Macaca fascicularis; conditions: in vivo
[27] = test system: Pons; experiment: Drug uptake in anesthetized cynomolgus monkey brain pons after 12.5 mins postinjection; assay type: ADME, organism-based, Macaca fascicularis; conditions: in vivo
[28] = test system: Medulla; experiment: Drug uptake in anesthetized cynomolgus monkey brain medulla after 185 mins postinjection; assay type: ADME, organism-based, Macaca fascicularis; conditions: in vivo
[29] = test system: Medulla; experiment: Drug uptake in anesthetized cynomolgus monkey brain medulla after 205 mins postinjection; assay type: ADME, organism-based, Macaca fascicularis; conditions: in vivo
[30] = Drug uptake in anesthetized cynomolgus monkey brain occipital lobe after 195 mins postinjection; assay type: ADME, organism-based, Macaca fascicularis; conditions: in vivo, 3.25 h
[31] = test system: Caudate; experiment: Drug uptake in anesthetized cynomolgus monkey brain caudate after 185 mins postinjection; assay type: ADME, organism-based, Macaca fascicularis, Caudate nucleus; conditions: in vivo
[32] = test system: Putamen; experiment: Drug uptake in anesthetized cynomolgus monkey brain putamen after 195 mins postinjection; assay type: ADME, organism-based, Macaca fascicularis; conditions: in vivo, 3.25 h
[33] = Ratio of drug uptake in caudate to cerebellum in anesthetized cynomolgus monkey after 55 mins postinjection; assay type: ADME, organism-based, Macaca fascicularis; conditions: in vivo
[34] = Ratio of drug uptake in caudate to cerebellum in anesthetized cynomolgus monkey after 65 mins postinjection; assay type: ADME, organism-based, Macaca fascicularis; conditions: in vivo
[35] = test system: Pons; experiment: Drug uptake in anesthetized cynomolgus monkey brain pons after 155 mins postinjection; assay type: ADME, organism-based, Macaca fascicularis; conditions: in vivo
[36] = test system: Medulla; experiment: Drug uptake in anesthetized cynomolgus monkey brain medulla after 2.5 mins postinjection; assay type: ADME, organism-based, Macaca fascicularis; conditions: in vivo
[37] = test system: Medulla; experiment: Drug uptake in anesthetized cynomolgus monkey brain medulla after 18.5 mins postinjection; assay type: ADME, organism-based, Macaca fascicularis; conditions: in vivo
[38] = test system: Medulla; experiment: Drug uptake in anesthetized cynomolgus monkey brain medulla after 45 mins postinjection; assay type: ADME, organism-based, Macaca fascicularis; conditions: in vivo, 0.75 h
[39] = test system: Medulla; experiment: Drug uptake in anesthetized cynomolgus monkey brain medulla after 175 mins postinjection; assay type: ADME, organism-based, Macaca fascicularis; conditions: in vivo
[40] = test system: Medulla; experiment: Drug uptake in anesthetized cynomolgus monkey brain medulla after 225 mins postinjection; assay type: ADME, organism-based, Macaca fascicularis; conditions: in vivo, 3.75 h
[41] = Drug uptake in anesthetized cynomolgus monkey brain cerebellum after 3.5 mins postinjection; assay type: ADME, organism-based, Macaca fascicularis; conditions: in vivo
[42] = Drug uptake in anesthetized cynomolgus monkey brain cerebellum after 9.5 mins postinjection; assay type: ADME, organism-based, Macaca fascicularis; conditions: in vivo
[43] = Drug uptake in anesthetized cynomolgus monkey brain cerebellum after 115 mins postinjection; assay type: ADME, organism-based, Macaca fascicularis; conditions: in vivo
[44] = Drug uptake in anesthetized cynomolgus monkey brain cerebellum after 135 mins postinjection; assay type: ADME, organism-based, Macaca fascicularis; conditions: in vivo, 2.25 h
[45] = Drug uptake in anesthetized cynomolgus monkey brain cerebellum after 215 mins postinjection; assay type: ADME, organism-based, Macaca fascicularis; conditions: in vivo
[46] = Drug uptake in anesthetized cynomolgus monkey brain occipital lobe after 0.5 mins postinjection; assay type: ADME, organism-based, Macaca fascicularis; conditions: in vivo
[47] = Ratio of drug uptake in thalamus to cerebellum in anesthetized cynomolgus monkey after 95 mins postinjection; assay type: ADME, organism-based, Macaca fascicularis; conditions: in vivo
[48] = Ratio of drug uptake in thalamus to cerebellum in anesthetized cynomolgus monkey after 195 mins postinjection; assay type: ADME, organism-based, Macaca fascicularis; conditions: in vivo, 3.25 h
[49] = test system: Caudate; experiment: Drug uptake in anesthetized cynomolgus monkey brain caudate after 6.5 mins postinjection; assay type: ADME, organism-based, Macaca fascicularis, Caudate nucleus; conditions: in vivo
[50] = test system: Caudate; experiment: Drug uptake in anesthetized cynomolgus monkey brain caudate after 12.5 mins postinjection; assay type: ADME, organism-based, Macaca fascicularis, Caudate nucleus; conditions: in vivo
[51] = test system: Caudate; experiment: Drug uptake in anesthetized cynomolgus monkey brain caudate after 18.5 mins postinjection; assay type: ADME, organism-based, Macaca fascicularis, Caudate nucleus; conditions: in vivo
[52] = test system: Caudate; experiment: Drug uptake in anesthetized cynomolgus monkey brain caudate after 45 mins postinjection; assay type: ADME, organism-based, Macaca fascicularis, Caudate nucleus; conditions: in vivo, 0.75 h
[53] = test system: Caudate; experiment: Drug uptake in anesthetized cynomolgus monkey brain caudate after 115 mins postinjection; assay type: ADME, organism-based, Macaca fascicularis, Caudate nucleus; conditions: in vivo
[54] = test system: Thalamus; experiment: Drug uptake in anesthetized cynomolgus monkey brain thalamus after 2.5 mins postinjection; assay type: ADME, organism-based, Macaca fascicularis; design: unit not given here; conditions: in vivo
[55] = test system: Thalamus; experiment: Drug uptake in anesthetized cynomolgus monkey brain thalamus after 35 mins postinjection; assay type: ADME, organism-based, Macaca fascicularis; design: unit not given here; conditions: in vivo
[56] = test system: Putamen; experiment: Drug uptake in anesthetized cynomolgus monkey brain putamen after 4.5 mins postinjection; assay type: ADME, organism-based, Macaca fascicularis; design: unit not given here; conditions: in vivo, 0.075 h
[57] = test system: Putamen; experiment: Drug uptake in anesthetized cynomolgus monkey brain putamen after 18.5 mins postinjection; assay type: ADME, organism-based, Macaca fascicularis; design: unit not given here; conditions: in vivo
[58] = test system: Putamen; experiment: Drug uptake in anesthetized cynomolgus monkey brain putamen after 27.5 mins postinjection; assay type: ADME, organism-based, Macaca fascicularis; design: unit not given here; conditions: in vivo
[59] = test system: Thalamus; experiment: Drug uptake in anesthetized cynomolgus monkey brain thalamus after 85 mins postinjection; assay type: ADME, organism-based, Macaca fascicularis; design: unit not given here; conditions: in vivo
[60] = test system: Thalamus; experiment: Drug uptake in anesthetized cynomolgus monkey brain thalamus after 115 mins postinjection; assay type: ADME, organism-based, Macaca fascicularis; design: unit not given here; conditions: in vivo
[61] = test system: Thalamus; experiment: Drug uptake in anesthetized cynomolgus monkey brain thalamus after 125 mins postinjection; assay type: ADME, organism-based, Macaca fascicularis; design: unit not given here; conditions: in vivo
[62] = test system: Thalamus; experiment: Drug uptake in anesthetized cynomolgus monkey brain thalamus after 175 mins postinjection; assay type: ADME, organism-based, Macaca fascicularis; design: unit not given here; conditions: in vivo
[63] = test system: Midbrain; experiment: Drug uptake in anesthetized cynomolgus monkey brain midbrain after 1.5 mins postinjection; assay type: ADME, organism-based, Macaca fascicularis; design: unit not given here; conditions: in vivo, 0.025 h
[64] = test system: Midbrain; experiment: Drug uptake in anesthetized cynomolgus monkey brain midbrain after 65 mins postinjection; assay type: ADME, organism-based, Macaca fascicularis; design: unit not given here; conditions: in vivo
[65] = Ratio of drug uptake in midbrain to cerebellum in anesthetized cynomolgus monkey after 22.5 mins postinjection; assay type: ADME, organism-based, Macaca fascicularis; conditions: in vivo, 0.375 h
[66] = Ratio of drug uptake in midbrain to cerebellum in anesthetized cynomolgus monkey after 135 mins postinjection; assay type: ADME, organism-based, Macaca fascicularis; conditions: in vivo, 2.25 h
[67] = Ratio of drug uptake in midbrain to cerebellum in anesthetized cynomolgus monkey after 145 mins postinjection; assay type: ADME, organism-based, Macaca fascicularis; conditions: in vivo

## O=C(OCCC[18F])C1C2CCC(CC1c1cccc(/C=C\I)c1)N2 (configuration not stated)
[1]
  Ratio: 0.9
[2]
  Ratio: 1.7
[3]
  Ratio: 1.5
[4]
  Ratio: 1.7
[5]
  Drug uptake: 1.29
[6]
  Drug uptake: 3.52
[7]
  Drug uptake: 2.63
[8]
  Drug uptake: 0.16
[9]
  Drug uptake: 1.31
[10]
  Drug uptake: 1.88
[11]
  Drug uptake: 2.76
[12]
  Drug uptake: 2.71
[13]
  Drug uptake: 1.82
[14]
  Drug uptake: 1.78
[15]
  Ratio: 1.9
[16]
  Ratio: 1.9
[17]
  Ratio: 1.7
[18]
  Ratio: 0.7
[19]
  Ratio: 1
[20]
  Ratio: 1
[21]
  Ratio: 1.1
[22]
  Ratio: 1.1
[23]
  Ratio: 0.9
[24]
  Drug uptake: 4.38
[25]
  Drug uptake: 4.1
[26]
  Drug uptake: 3.57
[27]
  Drug uptake: 3.49
[28]
  Drug uptake: 3.93
[29]
  Drug uptake: 3.76
[30]
  Drug uptake: 2.34
[31]
  Drug uptake: 2.82
[32]
  Drug uptake: 3.39
[33]
  Ratio: 0.9
[34]
  Ratio: 1
[35]
  Drug uptake: 3.52
[36]
  Drug uptake: 0.84
[37]
  Drug uptake: 4.6
[38]
  Drug uptake: 5.13
[39]
  Drug uptake: 4.08
[40]
  Drug uptake: 3.6
[41]
  Drug uptake: 1.95
[42]
  Drug uptake: 4.24
[43]
  Drug uptake: 3.1
[44]
  Drug uptake: 2.66
[45]
  Drug uptake: 2.06
[46]
  Drug uptake: 0.01
[47]
  Ratio: 1.3
[48]
  Ratio: 1.5
[49]
  Drug uptake: 2.53
[50]
  Drug uptake: 3
[51]
  Drug uptake: 3.38
[52]
  Drug uptake: 4.05
[53]
  Drug uptake: 3.61
[54]
  Drug uptake: 0.8
[55]
  Drug uptake: 4.81
[56]
  Drug uptake: 2.31
[57]
  Drug uptake: 4.42
[58]
  Drug uptake: 4.9
[59]
  Drug uptake: 4.59
[60]
  Drug uptake: 4.24
[61]
  Drug uptake: 4.15
[62]
  Drug uptake: 3.44
[63]
  Drug uptake: 0.32
[64]
  Drug uptake: 4.97
[65]
  Ratio: 1
[66]
  Ratio: 1.7
[67]
  Ratio: 1.8

From ChEMBL document CHEMBL1151757, “Synthesis, radiosynthesis, and biological evaluation of fluorine-18-labeled 2beta-carbo(fluoroalkoxy)-3beta-(3'-((Z)-2-haloethenyl)phenyl)nortropanes: candidate radioligands for in vivo imaging of the serotonin transporter with positron emission tomography” (J Med Chem, 2008)
